Holding throughout (assay type): cell-based
Assay [1] has as its system HVA calcium channels in rat DRG neurons. The conditions noted are these: for rat HVA Ca^2+ channel I/Icontrol ± SEM (n): 1 μM.
A further assay addresses T1, human α7 nAChR (Homo sapiens, UniProt P36544).
T1 construct: expressed in transfected cells; host or cells: Xenopus laevis oocytes
The conditions noted are these: 3 μM.

For another assay, the target named is T2, human α9α10 nAChR (Homo sapiens, UniProt Q9GZZ6+Q9UGM1).
T2 construct: expressed in transfected cells; host or cells: Xenopus laevis oocytes
The note with it: 3 μM.

The record followed here is patent publication US11136351B2 (priority 2016, dated 2021).

No end group written: not given here.

T2 sequence (Q9UGM1 26-479 limits assumed): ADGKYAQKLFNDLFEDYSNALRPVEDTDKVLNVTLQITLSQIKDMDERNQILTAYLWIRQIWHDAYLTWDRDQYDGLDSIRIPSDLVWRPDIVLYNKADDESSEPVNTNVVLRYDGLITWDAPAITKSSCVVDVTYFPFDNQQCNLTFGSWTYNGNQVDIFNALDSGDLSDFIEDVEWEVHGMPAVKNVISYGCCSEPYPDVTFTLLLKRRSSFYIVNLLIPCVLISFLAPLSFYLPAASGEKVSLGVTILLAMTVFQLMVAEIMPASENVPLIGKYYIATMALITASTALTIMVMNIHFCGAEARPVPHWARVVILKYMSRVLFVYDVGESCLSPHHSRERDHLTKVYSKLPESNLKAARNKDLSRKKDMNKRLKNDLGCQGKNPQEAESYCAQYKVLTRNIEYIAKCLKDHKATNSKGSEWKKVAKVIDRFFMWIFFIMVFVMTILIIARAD
T2 sequence (Q9GZZ6 25-450): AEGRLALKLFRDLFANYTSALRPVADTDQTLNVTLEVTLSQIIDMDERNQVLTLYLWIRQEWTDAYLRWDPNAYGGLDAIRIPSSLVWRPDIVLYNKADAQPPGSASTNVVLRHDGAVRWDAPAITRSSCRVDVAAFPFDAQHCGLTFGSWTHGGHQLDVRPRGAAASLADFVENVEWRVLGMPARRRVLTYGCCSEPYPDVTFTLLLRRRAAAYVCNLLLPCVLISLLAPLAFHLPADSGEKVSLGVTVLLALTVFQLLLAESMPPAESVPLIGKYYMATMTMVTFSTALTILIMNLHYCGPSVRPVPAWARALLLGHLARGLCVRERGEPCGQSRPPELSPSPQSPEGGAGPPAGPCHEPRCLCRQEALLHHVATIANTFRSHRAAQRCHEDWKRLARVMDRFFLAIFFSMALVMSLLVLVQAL

“Pn1.2: native full length Pn1.2, SEQ ID No. 42: G C C S H P P C F L N N P D Y C (GCCSHPPCFLNNPDYC; not fully specified; ends and bridges not checked)”: in assay [1], the “inhibition of HVA calcium currents by globular, ribbon and beads isomers” value was “found to inhibit HVA calcium currents”; the “rat HVA Ca^2+ channel I/Icontrol ± SEM (n)” value is 0.78 ± 0.03 (11). In addition, the “human α7 nAChR I/Icontrol ± SEM (n)” value in the assay with human α7 nAChR was 0.006 ± 0.005 (5). In addition, in the assay with human α9α10 nAChR, the “human α9α10 nAChR I/Icontrol ± SEM (n)” value was 0.012 ± 0.001 (4).

As for “Pu1.2: native full length Pu1.2, SEQ ID No. 41: G G C C S Y P P C I A N N P L C (GGCCSYPPCIANNPLC; not fully specified; ends and bridges not checked)”, in assay [1], the “inhibition of HVA calcium currents by globular, ribbon and beads isomers” value is on record as “found to inhibit HVA calcium currents”; the “rat HVA Ca^2+ channel I/Icontrol ± SEM (n)” value is 0.73 ± 0.02 (12). The “human α7 nAChR I/Icontrol ± SEM (n)” value with human α7 nAChR was 0.98 ± 0.03 (6). Besides, the “human α9α10 nAChR I/Icontrol ± SEM (n)” value in the assay with human α9α10 nAChR is given as 1.01 ± 0.04 (4).
